In patent US6800653B2, “Epothilone derivatives” (priority 2001, dated 2004):

Legend:
[1] = test system: HCT-116 human colon carcinoma cells; test: Cytotoxicity (in vitro) by MTS assay; format: cell-based; details: HCT-116, 72 hours incubation, MTS, read-out: HTC-116 assay IC50
Protocol: Cytoxicity was assessed in HCT-116 human colon carcinoma cells by MTS (3-(4,5-dimethylthiazol-2-yl)-5-(3-carboxymethoxyphenyl)-2-(4-sulphenyl)-2H-tetrazolium, inner salt) assay as reported in T. L. Riss, et. al., “Comparison of MTT, XTT, and a novel tetrazolium compound MTS for in vitro proliferation and chemosensitivity assays.,” Mol. Biol. Cell 3 (Suppl.): 184a, 1992. Cells were plated at 4,000 cell/well in 96 well microtiter plates and 24 hours later drugs were added and serial diluted. The cells were incubated at 37° form 72 hours at which time the tetrazolium dye, MTS at 333 μg/ml (final concentration), in combination with the electron coupling agent phenazine methosulfate at 25 μM (final concentration) was added. A dehydrogenase enzyme in live cells reduces the MTS to a form that absorbs light at […] which can be quantitated spectrophotometrically. The greater the absorbance the greater the number of live cells. The results are expressed as an IC50, which is the drug concentration required to inhibit cell proliferation (i.e. absorbance at 450 nm) to 50% of that of untreated control cells.

calf brain tubulin = test: In vitro tubulin polymerization; format: biochemical; details: interpolated concentration inducing an initial slope of 0.01 OD/minute; 1.0 mg/ml microtubule protein, 37°; read-out: Tubulin assay EC0.01
Protocol: In vitro Tubulin Polymerization
Twice cycled (2×) calf brain tubulin was prepared following the procedure of Williams and Lee (see Williams, R. C., Jr., and Lee, J. C. Preparation of tubulin from brain. Methods in Enzymology 85, Pt. D: 376-385, 1982) and stored in liquid nitrogen before use. Quantification of tubulin polymerization potency is accomplished following a modified procedure of Swindell, et al., (see Swindell, C. S., Krauss, N. E., Horwitz, S. B., and Ringel, L. Biologically active taxol analogues with deleted A-ring side chain substituents and variable C-2′ configurations. J. Med. Chem. 34: 1176-1184, 1991). These modifications, in part, result in the expression of tubulin polymerization potency as an effective concentration for any given compound. For this method, different concentrations of compound in polymerization buffer (0.1M MES, 1 mM EGTA, 0.5 mM MgCl2, pH 6.6) are added to tubulin in polymerization buffer at 37° in microcuvette wells of a Beckman (Beckman Instruments) Model DU 7400 UV spectrophotometer. A final microtubule protein concentration of 1.0 mg/ml and compound concentration of generally 2.5, 5.0, and 10 μM are used. Initial slopes of OD change measured every 10 seconds were calculated by the program accompanying the instrument after initial and final times of the linear region encompassing at least 3 time points were manually defined. Under these conditions linear variances were generally <10^−6, slopes ranged from 0.03 to 0.002 absorbance unit/minute, and maximum absorbance was 0.15 absorbance units. Effective concentration (EC0.01) is defined as the interpolated concentration capable of inducing an initial slope of 0.01 OD/minute rate and is calculated using the formula: EC0.01=concentration/slope. EC0.01 values are expressed as the mean with standard deviation obtained from 3 different concentrations. EC0.01 values for the compounds in this invention fall in the range 0.01-1000 μM.

| Compound | IC50 [1] | EC50 (calf brain tubulin) |
| --- | --- | --- |
| C/C(=C\c1csc(C)n1)C1CC2[C@@H](CCC[C@H](C)[C@H](O)[C@@H](C)C(=O)C(C)(C)[C@@H](O)CC(=O)O1)N2C(=O)c1ccccc1 (relative stereo) [Example 22, 1S-[1R*,3R*(E),7R*,10S,11R*,12R*,16S*]]-17-Phenylcarbonyl-7,11-dihydroxy-8,8,10,12-tetramethyl-3-[1-methyl-2-(2-methyl-4-thiazolyl)ethenyl]-4-oxa-17-azabicyclo[14.1.0]heptadecane-5,9-dione.] | 3 nM | 1400 nM |
| C/C(=C\c1csc(C)n1)C1CC2[C@@H](CCC[C@H](C)[C@H](O)[C@@H](C)C(=O)C(C)(C)[C@@H](O)CC(=O)O1)N2C(=O)c1cccs1 (relative stereo) [Example 23, [1S-[1R*,3R*(E),7R*,10S*,11R*,12R*,16S*]]-17-(2-Thienyl)carbonyl-7,11-dihydroxy-8,8,10,12-tetramethyl-3-[1-methyl-2-(2-methyl-4-thiazolyl)ethenyl]-4-oxa-17-azabicyclo[14.1.0]heptadecane-5,9-dione.] | 1.6 nM | 1200 nM |
| CCOC(=O)N1C2CC(/C(C)=C/c3csc(C)n3)OC(=O)C[C@H](O)C(C)(C)C(=O)[C@H](C)[C@@H](O)[C@@H](C)CCC[C@H]21 (relative stereo) [Example 24] | 7.7 nM | 1200 nM |
